Measured values published in patent US20220056019A1, “FARNESOID X RECEPTOR AGONISTS AND USES THEREOF” (Metacrine, Inc., priority 2018, published 2022).

Molecular target: T1, hFXR (Homo sapiens, UniProt Q96RI1)
T1 construct: expressed in transfected cells; host or cells: CV-1 cells
T1 sequence (Q96RI1 1-486): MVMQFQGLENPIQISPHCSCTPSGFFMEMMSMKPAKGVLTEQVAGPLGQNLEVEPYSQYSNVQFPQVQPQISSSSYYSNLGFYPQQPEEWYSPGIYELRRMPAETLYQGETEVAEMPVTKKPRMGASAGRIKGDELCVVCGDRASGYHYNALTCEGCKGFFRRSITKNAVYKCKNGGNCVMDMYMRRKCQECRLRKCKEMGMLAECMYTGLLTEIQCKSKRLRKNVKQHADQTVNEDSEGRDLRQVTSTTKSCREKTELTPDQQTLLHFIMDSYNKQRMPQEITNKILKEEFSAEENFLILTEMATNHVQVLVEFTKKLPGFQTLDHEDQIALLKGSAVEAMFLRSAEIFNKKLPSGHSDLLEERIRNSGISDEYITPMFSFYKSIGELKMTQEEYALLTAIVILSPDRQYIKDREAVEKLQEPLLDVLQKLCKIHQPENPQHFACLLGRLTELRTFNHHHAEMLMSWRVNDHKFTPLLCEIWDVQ
T1 sequence (P19793 1-462 partner): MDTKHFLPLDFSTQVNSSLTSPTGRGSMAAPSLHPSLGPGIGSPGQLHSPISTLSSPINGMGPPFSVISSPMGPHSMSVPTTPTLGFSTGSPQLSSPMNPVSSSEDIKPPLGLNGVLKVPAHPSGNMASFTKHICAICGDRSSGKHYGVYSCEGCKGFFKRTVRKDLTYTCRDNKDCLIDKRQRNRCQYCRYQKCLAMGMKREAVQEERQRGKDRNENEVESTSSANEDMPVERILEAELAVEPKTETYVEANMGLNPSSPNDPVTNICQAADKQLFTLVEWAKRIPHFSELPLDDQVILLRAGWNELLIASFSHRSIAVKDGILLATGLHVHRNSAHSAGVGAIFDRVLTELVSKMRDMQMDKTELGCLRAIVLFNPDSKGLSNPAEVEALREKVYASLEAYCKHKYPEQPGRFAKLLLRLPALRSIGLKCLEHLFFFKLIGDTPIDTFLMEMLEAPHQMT
Experiment: In Vitro FXR Assay (TK): TK-ECRE-luc reporter in transfected CV-1 cells
Assay type: cell-based
Conditions: 18 hrs incubation, luminescence
Method: Example B-1: In Vitro FXR Assay (TK)
CV-1 cells were seeded at a density of 2,000,000 cells in a T175 flask with DMEM+10% charcoal double-stripped FBS and incubated at 37° C. in 5% CO2 for 18 h (O/N).
After 18 h of incubation, the medium in the T175 flask was changed with fresh DMEM+10% charcoal super-stripped serum. In a polypropylene tube, 2500 μL OptiMEM (Life Technologies, Cat #31985-062) was combined with expression plasmids for hFXR, hRXR, TK-ECRE-luc and pCMX-YFP. The tube was then briefly vortexed and incubated at room temperature for 5 minutes. Transfection reagent (X-tremeGENE HP from Roche, Cat #06 366 236 001) was added to the OptiMEM/plasmid mixture vortexed and incubated at room temperature for 20 minutes. Following incubation, the transfection reagent/DNA mixture complex was added to cells in the T175 flask and the cells were incubated at 37° C. in 5% CO2 for 18 h (O/N).
Compounds were serially diluted in DMSO and added to transfected CV-1 cells. The cells were then incubated for 18 hrs. The next day cells were lysed and examined for luminescence.

SMILES | EC50 [nM]
COc1ccc(C23CCC(CN(c4cc(-c5cnn(C(C)C)c5)c(F)cn4)C(=O)[C@H]4CC[C@H](OC(=O)N5CC(CS(C)(=O)=O)C5)CC4)(CC2)CC3)cc1C [Compound 25.07, 4-((5-Fluoro-4-(1-isopropyl-1H-pyrazol-4-yl)pyridin-2-yl)((4-(4-methoxy-3-methylphenyl)bicyclo[2.2.2]octan-1-yl)methyl)carbamoyl)cyclohexyl trans-3-((methylsulfonyl)methyl)azetidine-1-carboxylate] | ≤ 50
COc1ccc([C@H]2CC[C@H](CN(c3cc(-c4coc(C5CC5)n4)ccn3)C(=O)[C@H]3CC[C@H](OC(=O)NCC(C)(C)O)CC3)CC2)cc1C [Compound 2.02, trans-4-((4-(2-Cyclopropyloxazol-4-yl)pyridin-2-yl)((trans-4-(4-methoxy-3-methylphenyl)cyclohexyl)methyl)carbamoyl) cyclohexyl(2-hydroxy-2-methylpropyl)carbamate] | ≤ 50
COc1ccc(C23CCC(CN(c4cc(-c5cnn(C6(C)CCC6)c5)ncn4)C(=O)[C@H]4CC[C@H](OC(=O)N5CC(O)C5)CC4)(CC2)CC3)cc1C [Compound 25.26, 4-(((4-(4-Methoxy-3-methylphenyl)bicyclo[2.2.2]octan-1-yl)methyl)(6-(1-(1-methylcyclobutyl)-1H-pyrazol-4-yl)pyrimidin-4-yl)carbamoyl)cyclohexyl trans-3-hydroxyazetidine-1-carboxylate] | ≤ 50
COc1ccc([C@H]2CC[C@H](CN(c3cc(-c4cnn(C(C)C)c4)ccn3)C(=O)[C@H]3CC[C@H](OC(=O)N4CC(OC)C4)CC3)CC2)cc1C [Compound 2.18, trans-4-((4-(1-Isopropyl-1H-pyrazol-4-yl)pyridin-2-yl) ((trans-4-(4-methoxy-3-methylphenyl)cyclohexyl)methyl)carbamoyl) cyclohexyl 3-methoxyazetidine-1-carboxylate] | ≤ 50
COc1ccc(C23CCC(CN(c4cc(-c5cnn(C(C)C)c5)c(F)cn4)C(=O)[C@H]4CC[C@H](OC(=O)N5CC(O)C5)CC4)(CC2)CC3)cc1C [Compound 26.02, 4-((5-Fluoro-4-(1-isopropyl-1H-pyrazol-4-yl)pyridin-2-yl)((4-(4-methoxy-3-methylphenyl)bicyclo[2.2.2]octan-1-yl)methyl)carbamoyl)(trans-cyclohexyl) 3-hydroxyazetidine-1-carboxylate] | ≤ 50
CCc1nc(-c2ccnc(N(CC34CCC(c5ccc(OC)c(C)c5)(CC3)CC4)C(=O)[C@H]3CC[C@H](OC(=O)N4CC(O)C4)CC3)c2)co1 [Compound 4.22, 4-((4-(2-Ethyloxazol-4-yl)pyridin-2-yl)((4-(4-methoxy-3-methylphenyl)bicyclo[2.2.2]octan-1-yl)methyl)carbamoyl) cyclohexyl 3-hydroxyazetidine-trans-1-carboxylate] | ≤ 50
CCS(=O)(=O)NC[C@H]1CC[C@H](C(=O)N(C[C@H]2CC[C@H](c3ccc(OC)c(C)c3)CC2)c2cccc(-c3cnn(C(C)C)c3)c2)CC1 [Compound 12, (trans)-4-(Ethylsulfonamidomethyl)-N-(3-(1-isopropyl-1H-pyrazol-4-yl)phenyl)-N-(((trans)-4-(4-methoxy-3-methylphenyl)cyclohexyl)methyl)cyclohexanecarboxamide] | ≤ 50
COc1ccc(C23CCC(CN(c4cc(-c5cnn(C(C)C)c5)ccn4)C(=O)[C@H]4CC[C@H](OC(=O)N5CC(O)C5)CC4)(CC2)CC3)nc1C [Compound 26.20, 4-((4-(1-Isopropyl-1H-pyrazol-4-yl)pyridin-2-yl)((4-(5-methoxy-6-methylpyridin-2-yl)bicyclo[2.2.2]octan-1-yl)methyl)carbamoyl)cyclohexyl trans-3-hydroxyazetidine-1-carboxylate] | ≤ 50
COc1ccc(C23CCC(CN(c4cc(-c5cnn(C(C)C)c5)ccn4)C(=O)[C@H]4CC[C@H](NC(=O)C(C)(C)O)CC4)(CC2)CC3)cc1C [Compound 9.03] | ≤ 50
